{
  "source": "patent US20060083768A1",
  "about": "“Method of thickening a coating using a drug” (ATRIUM MEDICAL CORPORATION, priority 2004, published 2006)",
  "origin": "cited, not measured here",
  "test_system": "Porcine Coronary Model",
  "details": "stents coated with agent solubilized in eicosapentaenoic acid oil vs eicosapentaenoic acid oil coated stents",
  "data": [
    {"smiles": "C=C1[C@@H](C)[C@H]2[C@H](Cc3ccccc3)NC(=O)[C@]23[C@H](OC(C)=O)/C=C/[C@@](C)(O)C(=O)[C@@H](C)C/C=C/[C@H]3[C@@H]1O", "note": "[cytochalasin D]", "values": [
      {"measurement": "less area stenosis compared to the control group", "result": 38, "unit": "%"},
      {"measurement": "less intimal hyperplasia compared to the control group", "result": 39, "unit": "%"}
    ]}
  ]
}
